In ChEMBL document CHEMBL5038604, “5α-Epoxyalantolactone Inhibits Metastasis of Triple-Negative Breast Cancer Cells by Covalently Binding a Conserved Cysteine of Annexin A2” (J Med Chem, 2021):
One block for each molecule: values may come before it. The source made the active and inactive calls. No cut-off for these calls is given here.

What was measured:
4T1 [1] = test: Antitumor activity against mouse 4T1 cells expressing luciferase gene implanted in BALB/c lung metastatic mouse model assessed as reduction in fluorescence at 10 mg/kg, ip administered twice a week for 20 days by luciferase reporter gene based bioluminescence assay; assay type: functional, organism-based; settings: time 20.0 day
MDA-MB-231 [2] = test: Inhibition of cell stemness in human MDA-MB-231 cells assessed as reduction in tumor spheres count at 10 to 20 uM incubated in tumorsphere medium for 4 days followed by compound incubation for 96 hrs by microscopic analysis; assay type: functional, cell-based; settings: dose 10-20 µM
4T1 [3] = test: Inhibition of cell stemness in mouse 4T1 cells assessed as reduction in tumor spheres count at 10 to 20 uM incubated in tumorsphere medium for 4 days followed by compound incubation for 96 hrs by microscopic analysis; assay type: functional, cell-based; settings: dose 10-20 µM
MDA-MB-231 [4] = test: Inhibition of cell migration in human MDA-MB-231 cells at 2.5 to 5 uM incubated for 36 hrs by wound healing assay; assay type: functional, cell-based; settings: dose 2.5-5 µM
[5] = molecular target: T1, Annexin A2/S100-A10 (Homo sapiens) (UniProt P07355+P60903); test: Inhibition of human ANXA2/S100A10 interaction in MDA-MB-231 cells pretreated with compound for 48 hrs by immunoprecipitation based Western blot analysis; assay type: cell-based
T1 sequence (P07355 2-339 limits assumed): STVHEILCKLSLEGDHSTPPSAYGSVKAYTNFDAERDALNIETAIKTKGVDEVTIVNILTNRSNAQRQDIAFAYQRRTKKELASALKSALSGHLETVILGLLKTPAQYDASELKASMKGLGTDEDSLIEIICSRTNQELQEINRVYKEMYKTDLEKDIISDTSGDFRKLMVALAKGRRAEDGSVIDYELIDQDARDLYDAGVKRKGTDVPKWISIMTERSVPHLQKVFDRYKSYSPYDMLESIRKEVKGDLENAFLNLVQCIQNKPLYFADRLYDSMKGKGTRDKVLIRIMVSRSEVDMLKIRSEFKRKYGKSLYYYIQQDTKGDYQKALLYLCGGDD
T1 sequence (P60903 whole entry partner): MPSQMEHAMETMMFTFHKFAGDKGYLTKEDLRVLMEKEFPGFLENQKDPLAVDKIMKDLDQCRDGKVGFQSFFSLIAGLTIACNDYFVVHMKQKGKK

4T1 [6] = test: Antiproliferative activity against mouse 4T1 cells assessed as reduction in cell viability after 48 hrs by MTT assay; assay type: functional, cell-based; settings: 4T1, 48 h
4T1 [7] = test: Antitumor activity against mouse 4T1 cells assessed as reduction in cell invasion at 2.5 to 5 uM measured after 24 hrs by crystal violet staining based transwell assay; assay type: functional; settings: dose 2.5-5 µM
4T1 [8] = test: Inhibition of colony formation in mouse 4T1 cells at 2.5 to 5 uM incubated for 7 days by crystal violet staining based assay; assay type: functional, cell-based; settings: dose 2.5-5 µM, time 7.0 day
MDA-MB-231 [9] = test: Antimetastatic activity against human MDA-MB-231 cells assessed as accumulation of E-cadherin in cell cytoplasm at 5 to 10 uM measured after 48 hrs by Western blot analysis; assay type: functional, cell-based; settings: dose 5-10 µM
MDA-MB-231 [10] = test: Inhibition of colony formation in human MDA-MB-231 cells at 2.5 to 5 uM incubated for 7 days by crystal violet staining based assay; assay type: functional, cell-based; settings: dose 2.5-5 µM, time 7.0 day
[11] = molecular target: T1, Annexin A2/S100-A10 (Homo sapiens); test: Inhibition of human ANXA2/S100A10 interaction in MDA-MB-231 cells at 5 to 10 uM measured after 48 hrs by immunocytochemistry assay; assay type: cell-based; settings: dose 5-10 µM
MDA-MB-231 [12] = test: Antimetastatic activity against human MDA-MB-231 cells assessed as decrease in E-cadherin expression in cell membrane at 5 to 10 uM measured after 48 hrs by Western blot analysis; assay type: functional, cell-based; settings: dose 5-10 µM
4T1 [13] = test: Inhibition of cell migration in mouse 4T1 cells at 5 to 10 uM incubated for 24 hrs by wound healing assay; assay type: functional, cell-based; settings: dose 5-10 µM
MDA-MB-231 [14] = test: Inhibition of cell stemness in human MDA-MB-231 cells assessed as reduction in size of tumor spheres incubated in tumorsphere medium for 4 days followed by compound incubation for 96 hrs by microscopic analysis; assay type: functional, cell-based
4T1 [15] = test: Inhibition of cell stemness in mouse 4T1 cells assessed as reduction in size of tumor spheres incubated in tumorsphere medium for 4 days followed by compound incubation for 96 hrs by microscopic analysis; assay type: functional, cell-based
MDA-MB-231 [16] = test: Antitumor activity against human MDA-MB-231 cells assessed as reduction in cell invasion at 2.5 to 5 uM measured after 24 hrs by crystal violet staining based transwell assay; assay type: functional; settings: dose 2.5-5 µM
MDA-MB-231 [17] = test: Antiproliferative activity against human MDA-MB-231 cells assessed as reduction in cell viability after 48 hrs by MTT assay; assay type: functional, cell-based; settings: MDA-MB-231, 48 h
4T1 [18] = test: Antitumor activity against mouse 4T1 cells xenografted in BALB/c mouse assessed as decrease in liver metastasis at 100 mg/kg, po administered once a day for 36 days by H&E staining based assay; assay type: functional, organism-based; settings: time 36.0 day
4T1 [19] = test: Antimetastatic activity against mouse 4T1 cells expressing luciferase gene implanted in BALB/c lung metastatic mouse model assessed as down regulation of E-cadherin expression in liver tissue at 100 mg/kg, po administered once a day for 20 days; assay type: functional, organism-based; settings: time 20.0 day
4T1 [20] = test: Antitumor activity against mouse 4T1 cells expressing luciferase gene implanted in BALB/c lung metastatic mouse model assessed as reduction in fluorescence at 100 mg/kg, po administered once a day for 20 days by luciferase reporter gene based bioluminescence assay; assay type: functional, organism-based; settings: time 20.0 day
4T1 [21] = test: Antitumor activity against mouse 4T1 cells xenografted in BALB/c mouse assessed as tumor growth inhibition at 100 mg/kg, po administered once a day for 36 days; assay type: functional; settings: 4T1, po, 864 h, time 36 day, read-out: TGI
4T1 [22] = test: Antitumor activity against mouse 4T1 cells xenografted in BALB/c mouse assessed as decrease in lung metastasis at 100 mg/kg, po administered once a day for 36 days by H&E staining based assay; assay type: functional, organism-based; settings: time 36.0 day
4T1 [23] = test: Antitumor activity against mouse 4T1 cells expressing luciferase gene implanted in BALB/c lung metastatic mouse model assessed as decrease in lung metastasis at 100 mg/kg, po administered once a day for 20 days by H&E staining based assay; assay type: functional, organism-based; settings: time 20.0 day
4T1 [24] = test: Antimetastatic activity against mouse 4T1 cells expressing luciferase gene implanted in BALB/c lung metastatic mouse model assessed as down regulation of ANXA2 expression in liver tissue at 100 mg/kg, po administered once a day for 20 days; assay type: functional, organism-based; settings: time 20.0 day
[25] = Toxicity in BALB/c mouse xenografted with mouse 4T1 assessed as effect on body weight at 100 mg/kg, po administered once a day for 36 days; assay type: organism-based; settings: in vivo, 864 h, time 36 day
4T1 [26] = test: Antitumor activity against mouse 4T1 cells expressing luciferase gene implanted in BALB/c lung metastatic mouse model assessed as decrease in lung metastatic burden at 100 mg/kg, po administered once a day for 20 days by H&E staining based assay; assay type: functional, organism-based; settings: time 20.0 day

SMILES: CC(=O)O[C@H]1C(=O)[C@@]2(C)[C@H]([C@H](OC(=O)c3ccccc3)[C@]3(O)C[C@H](OC(=O)[C@H](O)[C@@H](NC(=O)c4ccccc4)c4ccccc4)C(C)=C1C3(C)C)[C@]1(OC(C)=O)CO[C@@H]1C[C@@H]2O
Activity (4T1 [1]): inactive

inhibition [5]: Active
IC50 (4T1 [6]): 18.4 µM
inhibition [11]: Active
IC50 (MDA-MB-231 [17]): 16 µM
SMILES: C=C1C(=O)O[C@@H]2C[C@@]3(C)CCC[C@H](C)[C@@]34O[C@H]4[C@H]12
inhibition (MDA-MB-231 [2]): Active
inhibition (4T1 [3]): Active
inhibition (MDA-MB-231 [4]): Active
Activity (4T1 [7]): Active
inhibition (4T1 [8]): Active
Activity (MDA-MB-231 [9]): Active
inhibition (MDA-MB-231 [10]): Active
Activity (MDA-MB-231 [12]): Active
inhibition (4T1 [13]): Active
inhibition (MDA-MB-231 [14]): Dose-Dependent Effect
inhibition (4T1 [15]): Dose-Dependent Effect
Activity (MDA-MB-231 [16]): Active

SMILES: C[C@H]1CCC[C@]2(C)C[C@H]3OC(=O)[C@@H](CN(C)C)[C@H]3[C@@H]3O[C@@]132.O=C(O)/C=C/C(=O)O
Activity (4T1 [18]): Active
Activity (4T1 [19]): Active
Activity (4T1 [20]): Active
inhibition in vivo at 100 mg/kg (4T1 [21]): 30%
Activity (4T1 [22]): Active
Activity (4T1 [23]): Active
Activity (4T1 [24]): Active
Activity [25]: Non-Toxic
Activity (4T1 [26]): Active
